Legend:
[1] = system: PF-382 (FLT3-wt); test: cells; assay type: cell-based; conditions: 72 hours
Protocol: Cells were grown in 96-well culture plates (3000/well). […] Cell proliferation was determined after 72 hours drug treatment. […] Cell viability was measured with the CellTiter–Glo assay (Promega, USA), according to the manufacturer's instructions, and luminescence was measured in a multi-label reader (Envision, PerkinElmer, USA). […] GI50 values were calculated using Prism 5.0 (GraphPad Software, San Diego, CA).

[2] = system: FLT3-ITD; test: Kinase kinetic assay (ADP-Glo, varied ATP); assay type: biochemical; conditions: range of ATP concentrations
Protocol: Kinetic analyses of FLT3-ITD were performed using a luminometric kinase assay varying the concentration of ATP using the ADP-Glo reagents (Promega). […] After 60 min incubation at RT, various concentrations of ATP, 0.2 μg/μL FLT3 substrate Poly (4:1 Glu, Tyr) peptide added and incubated for 60 min at 37°C. The overall rate of reaction is determined as the slope of the decreasing phase of the reaction. Each data point was collected in duplicate and kinetic parameters were obtained using Prism 5.0 (GraphPad Software, San Diego, CA).

[3] = system: FLT3-ITD-D835Y; test: Auto-phosphorylation of FLT3 in transformed BaF3 isogenic cells; assay type: cell-based
Source text: (§1) The following antibodies were purchased from Cell Signaling Technology (Danvers, MA): FLT3 (8F2) Rabbit mAb (#3462), Phospho-FLT3 (Tyr589/591) (30D4) Rabbit mAb (#3464), NF-κB p65 (D14E12) XP® Rabbit mAb (#8242), Phospho-NF-κB p65 (Ser536) (93H1) Rabbit mAb (#3033), Stat5 Antibody (#9363), Phospho-Stat5 (Tyr694) (C71E5) Rabbit mAb (#9314), c-Myc (D84C12) XP® Rabbit mAb (#5605), Akt (pan) (C67E7) Rabbit mAb (#4691), Phospho-Akt (Thr308) (244F9) Rabbit mAb (#4056), Phospho-Akt (Ser473) (D9E) XP® Rabbit mAb (#4060), p44/42 MAPK (Erk1/2) (137F5) Rabbit mAb (#4695), Phospho-p44/42 MAPK (Erk1/2) (Thr202/Tyr204) (D13.14.4E) XP® Rabbit mAb (#4370), GAPDH (D16H11) XP® Rabbit mAb, PARP (46D11) rabbit mAb (#9532), Caspase-3 (8G10) rabbit mAb (#9665), GSK-3β (27C10) Rabbit mAb (#9315), Phospho-GSK-3β (Ser9) (5B3) Rabbit mAb (#9323), FoxO1 (C29H4) Rabbit mAb (#2880), Phospho-FoxO1 (Thr24)/FoxO3a (Thr32)/FoxO4 (Thr28) (4G6) Rabbit mAb (#2599), PRAS40 (D23C7) XP® Rabbit mAb (#2691), Phospho-PRAS40 (Thr246) (C77D7) Rabbit mAb (#2997), 4E-BP1 (#9644), 4E-BP1 (53H11) Rabbit mAb (#9644), p70 S6 Kinase (49D7) Rabbit mAb (#2708), Phospho-p70 S6 Kinase (Thr389) (108D2) Rabbit mAb (#9234). Antibodies were used at 1:1000. Protein lysate preparation and immunoblotting were carried out as previously described.
(§2) Retroviral constructs for BaF3-FLT3 mutants were made based on the pMSCVpuro (Clontech) backbone. For TEL-FLT3 vector, the first 1 kb of human TEL gene with an artificial myristoylation sequence ([…]) was cloned into pMSCVpuro retroviral vector, followed by a 3xFLAG tag sequence and a stop codon. Then the kinase domain coding sequence of FLT3 was inserted in-frame between TEL and 3× FLAG sequences. For full-length expression vectors, the coding sequences of FLT3 variants were directly cloned in pMSCVpuro vector with a 3X FLAG tag at the C-terminal end. All mutagenesis studies were performed using the QuikChange Site-Directed Mutagenesis Kit (Stratagene) following the manufacturer's instructions. […]

[4] = system: FLT3-ITD; test: as above; assay type: cell-based
Source text: as §1, §2

[5] = system: FLT3-ITD-F691L; test: as above; assay type: cell-based
Source text: as §1, §2

[6] = system: FLT3-ITD-positive AML patient primary cells; test: Anti-proliferation, AML patient primary cells; assay type: cell-based, human; conditions: at 1 μM; compared to normal bone marrow cells
Protocol: Mononuclear cells were isolated from samples from AML patients identified as harboring mutant FLT3. Cells were tested in liquid culture (DMEM, supplemented with 20% FBS) in the presence of different concentrations of inhibitors. All blood and bone marrow samples from AML patients were obtained under approval of the Dana Farber Cancer Institute Institutional Review Board. The ethics committees approved the consent procedure. All studies were performed with ACUC approved protocols at DFCI.

[7] = system: FLT3-ITD mediated signaling in MOLM14 and MV4-11 cell lines; test: Signaling pathway effect examination (immunoblot); assay type: cell-based, human; conditions: intact FLT3-ITD-positive cell lines, 4 hours
Source text: Cells were then washed in PBS and lysed in cell lysis buffer. FLT3, Phospho-FLT3 (Tyr589/591), AKT, Phospho-AKT Ser473, Phospho-AKT Thr308, GSK-3β, Phospho-GSK-3β (Ser9), Phospho-FoxO1 (Thr24), FoxO1, PRAS40, Phospho-PRAS40 (Thr246), STAT5, Phospho-STAT5 (Tyr694), NF-ΚB-P65, Phospho-NF-ΚB-P65 (Ser536), P70S6K, Phospho-P70S6K Thr389, 4EBP1, Phospho-4EBP1 (Thr37/46), ERK, Phospho-p44/42MAPK (Erk1/2) (Thr202/Tyr204), C-Myc and GAPDH antibodies (Cell Signaling Technology) were used for immunoblotting.

mode of inhibition (kinetics analysis) [2]: ATP competitive inhibitor
EC50 [3]: 1260 nM
EC50 [4]: 85 nM
EC50 [5]: 400 nM
Structure (SMILES): Cc1[nH]nc2ccc(-c3cncc(OC[C@@H](N)Cc4ccccc4)c3)cc12 [A674563]
GI50 [1]: 2700 nM
anti-proliferation activity in patient primary cells [6]: potent anti-proliferation activity
concentration from which auto-phosphorylation of FLT3-ITD at Y589/591 is affected [7]: ≥ 5 µM
concentration from which phosphorylation of STAT5 and expression of c-MYC are inhibited [7]: ≥ 0.5 µM
